Converted amounts (≈) assume the structure as drawn. Inconclusive results are not listed. The source made the active and inactive calls. How the calls were made is not given here.
tested on: M. tuberculosis H37Rv growth inhibition; experiment: Mycobacterium tuberculosis H37Rv growth inhibition, cell based, confirmatory dose response (AID 1949);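 further: bacteria grown 7 days with compound before Alamar blue readout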

With CCN(CC)CCSc1nc2sc3c(c2c(=O)n1-c1ccc(OC)cc1)CCCC3 the IC50 was > 50 µg/mL (inactive).
In the case of Cc1ccc(-n2c(=O)oc3ccc(Cl)cc3c2=O)cc1, the IC50 was > 50 µg/mL (inactive).
For CC1C(c2ccc(Cl)cc2)NC(c2ccc(Cl)cc2)C(C)C1(O)c1ccc(F)cc1 (stereo not drawn), the IC50 was > 50 µg/mL (inactive).
With CC(C)CN1C(=O)c2cccc3c([N+](=O)[O-])ccc(c23)C1=O the IC50 was > 50 µg/mL (inactive).
In the case of Nc1ccc2nc(SCC(=O)Nc3cccc(Cl)c3)sc2c1, the IC50 was > 50 µg/mL (inactive).
In the case of COc1cc2c(cc1NC(=O)C(=O)NCCCN1CCOCC1)oc1ccccc12, the IC50 was > 50 µg/mL (inactive).
For COc1cccc(OC)c1C(=O)Nc1cccc(-c2nc3cc(C)ccc3o2)c1, the IC50 was > 50 µg/mL (inactive).
In the case of CC1CCN(c2cc(/C=C(\C#N)c3nn(-c4ccccc4)c(N)c3C#N)c3ccccc3n2)CC1, the IC50 was > 50 µg/mL (inactive).

Point of comparison: CCOC(=O)C(C)n1cnc2scc(-c3ccc(CC)cc3)c2c1=O (stereo not drawn), IC50 3.9 µg/mL (≈ 10.9 µM). Against it:
- CCOC(=O)/C=C/C(=O)Nc1sc2c(c1C(=O)OC)CCC2 — 6.8-fold lower, 0.57 µg/mL (≈ 1.76 µM)
- Cn1c2c(c(=O)n(C)c1=O)C(C(F)(F)F)(C(F)(F)F)N=C(c1ccc(Cl)cc1)N2 — 12-fold higher, 46.1 µg/mL (≈ 105 µM)
- Cc1ccc(Cl)cc1N1CCN(C(=O)CC23CC4CC(CC(C4)C2)C3)CC1 — within 1.5-fold, 4.43 µg/mL (≈ 11.4 µM)
- CC(=O)c1ccc2[nH]c3ccc(C(C)=O)cc3c2c1 — 20-fold lower, 0.2 µg/mL (≈ 0.796 µM)
- CC(C)(C)c1ccc(OCC(=O)Nc2ccc(F)c(Cl)c2)cc1 — 3.5-fold higher, 13.7 µg/mL (≈ 40.9 µM)
- CCOC(=O)c1c(C)n(Cc2ccccc2)c2ccc(OCC(O)CNC(C)(C)C)cc12 (stereo not drawn) — within 1.5-fold, 4.28 µg/mL (≈ 9.76 µM)
- COc1cccc(-n2nnnc2S(C)(=O)=O)c1 — 3.4-fold lower, 1.16 µg/mL (≈ 4.56 µM)
- Cc1cccc(OCCn2c(NC(=O)c3ccco3)nc3ccccc32)c1 — within 1.5-fold, 2.87 µg/mL (≈ 7.94 µM)
- CCCCC(=O)NC(=S)Nc1ccc(N2CCN(C(=O)c3ccco3)CC2)c(Cl)c1 — 5.8-fold lower, 0.67 µg/mL (≈ 1.49 µM)
- Cc1ccccc1NC(=O)c1ccccc1NC(=S)NC(=O)c1cccnc1 — 3-fold lower, 1.3 µg/mL (≈ 3.33 µM)
- O=[N+]([O-])c1cccc(NC(=S)Nc2cc(C(F)(F)F)ccc2F)c1 — 4.9-fold higher, 19 µg/mL (≈ 52.9 µM)
- CCN1CCN(c2ccc(NC(=O)c3cc(Br)cc(C)c3OC)cc2Cl)CC1 — within 1.5-fold, 4.8 µg/mL (≈ 10.3 µM)
- Oc1ccc(CSc2ccccc2)c2cccnc12 — 6.5-fold lower, 0.6 µg/mL (≈ 2.24 µM)
- Cc1ccc(C)c(NC(=O)c2ccc(-c3ccccc3Cl)o2)c1 — 3.3-fold higher, 12.9 µg/mL (≈ 39.7 µM)
- C/C(=N/N=C1\NC(=O)C(Cc2ccc(F)cc2)S1)c1ccc(Cl)cc1 (stereo not drawn) — 2.6-fold lower, 1.48 µg/mL (≈ 3.94 µM)
- O=C(C1CCCN1S(=O)(=O)c1ccc(Cl)cc1)N1CCOCC1 (stereo not drawn) — 5.1-fold higher, 20 µg/mL (≈ 55.7 µM)
- COC(=O)COc1ccc2c(=O)c(Oc3ccccc3OC)c(C)oc2c1 — 2.8-fold lower, 1.39 µg/mL (≈ 3.75 µM)
- O=c1[nH]c(/C=C/c2cccc3ccccc23)nc(O)c1[N+](=O)[O-] — within 1.5-fold, 2.8 µg/mL (≈ 9.05 µM)
- Cc1ccc(C(=O)NCCC2=CCCCC2)cc1I — within 1.5-fold, 2.92 µg/mL (≈ 7.91 µM)
- O=C(Nc1cccc(Cl)c1)Nc1ccc(N2CCOCC2)c(C(F)(F)F)c1 — within 1.5-fold, 3.59 µg/mL (≈ 8.98 µM)
- COc1cccc(NC(=O)CSc2nnc(-c3ccc(Br)cc3)o2)c1 — within 1.5-fold, 3.12 µg/mL (≈ 7.42 µM)
- O=C(NCCCN1CCN(c2ccc(Cl)cc2)CC1)Nc1ccc(F)cc1 — 2.3-fold higher, 9.16 µg/mL (≈ 23.4 µM)
- O=C(NCCc1ccc(Cl)cc1)C12CC3CC(CC(C3)C1)C2 — 3.5-fold higher, 13.7 µg/mL (≈ 43 µM)
- Cc1ccc(Cc2ccc(C(=O)Nc3ccc(C)c(C)c3)o2)cc1 — 22-fold lower, 0.18 µg/mL (≈ 0.564 µM)
- O=C(NCCC1=CCCCC1)Nc1ccc([N+](=O)[O-])cc1 — 3-fold higher, 11.6 µg/mL (≈ 40 µM)
- CCc1ccccc1N1C(=O)c2cccc3c([N+](=O)[O-])ccc(c23)C1=O — 4.9-fold higher, 19 µg/mL (≈ 54.9 µM)
- O=C1C(=O)N(CCc2ccccc2)c2ccc(Cl)cc21 — within 1.5-fold, 4.73 µg/mL (≈ 16.6 µM)
- Cc1ccc(-c2noc(CNc3cccc(Cl)c3)n2)cc1 — 3.6-fold higher, 13.9 µg/mL (≈ 46.4 µM)
- CCCCc1ccc(NC(=O)CSCc2ccc(OC)cc2)cc1 — 3.3-fold higher, 12.9 µg/mL (≈ 37.5 µM)
- C/C=C/c1ccc(OCCCOc2cccc3ccc(C)nc23)c(OC)c1 — 4.3-fold higher, 16.8 µg/mL (≈ 46.3 µM)
- COC(=O)COc1ccc(NC(=O)CSc2ccc(Cl)cc2)cc1 — 5.1-fold lower, 0.77 µg/mL (≈ 2.1 µM)
- COc1ccc(CCNC(=S)N2CCN(C/C=C/c3ccccc3)CC2)cc1OC — 2.3-fold lower, 1.73 µg/mL (≈ 4.06 µM)
- COc1ccc(CNC(=O)c2c(N)nc3sc4c(c3c2C(F)(F)F)CCC4)cc1 — 13-fold lower, 0.31 µg/mL (≈ 0.736 µM)
- O=S(=O)(Nc1cc(Br)c(O)c2ccccc12)c1ccc(F)cc1 — within 1.5-fold, 3.06 µg/mL (≈ 7.72 µM)
- Cc1ccc(NC(=O)CSc2ccc(F)cc2)cc1 — 3.2-fold higher, 12.3 µg/mL (≈ 44.9 µM)
- N#Cc1ccc(NC(=O)Nc2ccc(Cl)cc2)cc1 — 7.6-fold lower, 0.51 µg/mL (≈ 1.88 µM)
- CCOC(=O)c1ccc(NC(=S)Nc2ccc(F)c(Cl)c2)cc1 — 14-fold lower, 0.28 µg/mL (≈ 0.794 µM)
- N#Cc1ccc(NC(=O)C23CC4CC(CC(C4)C2)C3)cc1 — 6.1-fold higher, 23.7 µg/mL (≈ 84.6 µM)
- Cc1cccc(C(=O)Nc2nc3ccccc3[nH]2)c1 — 5.3-fold lower, 0.74 µg/mL (≈ 2.94 µM)
- CCC(C)Oc1ccc(C(=O)NC(=S)Nc2ccc(NC(=O)c3ccco3)cc2)cc1 (stereo not drawn) — 11-fold lower, 0.36 µg/mL (≈ 0.823 µM)
- Cc1ccc(NC(=O)Nc2ccc([N+](=O)[O-])cc2)cc1F — 3.4-fold higher, 13.2 µg/mL (≈ 45.6 µM)
- CCc1ccccc1-n1c(=O)oc2ccc(Cl)cc2c1=O — 2.8-fold lower, 1.37 µg/mL (≈ 4.54 µM)
- Cc1ccc(C(C)C)c(OCCCCn2ccnc2)c1 — 1.8-fold lower, 2.22 µg/mL (≈ 8.15 µM)
- O=C(CC1(O)C(=O)N(CCc2ccccc2)c2ccc(Cl)cc21)c1ccc(Cl)s1 (stereo not drawn) — within 1.5-fold, 5.18 µg/mL (≈ 11.6 µM)
- O=[N+]([O-])c1ncn(Cc2ccc(Cl)cc2)n1 — 1.9-fold higher, 7.25 µg/mL (≈ 30.4 µM)
- C/C(=N/Nc1nc(C)c(C)s1)c1ccc(Br)cc1 — 6.6-fold lower, 0.59 µg/mL (≈ 1.82 µM)
- Cc1cc(NC(=O)c2ccc([N+](=O)[O-])o2)c(C)cc1I — 8.5-fold lower, 0.46 µg/mL (≈ 1.19 µM)
- CCn1cc(C(=O)O)c(=O)c2cc(F)c(N3CCN(C(=S)NC)CC3)cc21 — 3-fold higher, 11.8 µg/mL (≈ 30.1 µM)
- COC(=O)COc1ccc2c(=O)c(Oc3ccccc3)c(C(F)(F)F)oc2c1 — 1.7-fold higher, 6.6 µg/mL (≈ 16.7 µM)

Source: PubChem BioAssay AID1949 (Southern Research Institute, 2009)
